The text below walks through data of article PMC4024065, “Optimization of an Imidazopyridazine Series of Inhibitors of Plasmodium falciparum Calcium-Dependent Protein Kinase 1 (PfCDPK1)” (Journal of Medicinal Chemistry, 2014).

The conditions of series [1]: Figure 1 summary data; cited from earlier work.
The conditions of series [2]: Figure 1 summary data; cited from earlier work. The source holds these as a separate data set.
A further series is described as follows: Pharmacokinetics in rats. It is filed as in vivo. The following applies: rat, hydrochloride salt.

Read-outs that look alike come from different tables or passages of the source.

As to `CC(C)CCNc1ccc(-c2cnc3ccc(NC4CCN(C)CC4)nn23)cn1` [Compound 1], the “HLM % rem at 40 min” value in series [1] is 85%. Moreover, in series [2], the “MLM % rem at 30 min” value is 63%.

One may read the Vd as a proportionality between amount in the body and measured concentration, not a real space. For the compound `CN1CCC(Nc2ccc3ncc(-c4ccc(Nc5ncccc5F)cc4)n3n2)CC1` [Compound 35, 3-{4-[(3-Fluoropyridin-2-yl)amino]phenyl}-N-(1-methylpiperidin-4-yl)imidazo[1,2-b]pyridazin-6-amine], in the series “Pharmacokinetics in rats” (in vivo, iv 4.5 mg/kg), the Vd turned out to be 8 L/kg. The half-life in the series “Pharmacokinetics in rats” (in vivo, iv 4.5 mg/kg, read-out: iv t1/2 (converted)) was 4 h. Also, the clearance in “Pharmacokinetics in rats” (plasma, iv 4.5 mg/kg, read-out: plasma Cl) turned out to be 28 mL/min/kg; in the series “Pharmacokinetics in rats” (whole blood, iv 4.5 mg/kg, read-out: blood Cl), 14 mL/min/kg. Moreover, the “oral BA” value in “Pharmacokinetics in rats” (po 21 mg/kg, iv […]) was 70%.
